Assay results: patent US8536196B2, “Substituted 1,3-dioxanes useful as PPAR modulators” (Evolva SA, priority 2007, dated 2013)

What was measured:
[1] = system: 1.5 μM U-46619-induced platelet aggregation (platelet rich plasma); assay: TP receptor platelet aggregation - rabbit; assay type: cell-based, New Zealand Rabbit; conditions: Oryctolagus cuniculus, @ 0.1 mM (printed in the 30 μM column)
Source text: TP Receptor Platelet Aggregation—Rabbit:
Thrombosis Research 33:277-288

PPARgamma (h) = biological target: T1, PPARgamma (h) (Homo sapiens, UniProt P37231); assay: Human recombinant (E. coli) PPARgamma (h) binding assay
T1 construct: host or cells: E. coli
T1 sequence (P37231 1-505): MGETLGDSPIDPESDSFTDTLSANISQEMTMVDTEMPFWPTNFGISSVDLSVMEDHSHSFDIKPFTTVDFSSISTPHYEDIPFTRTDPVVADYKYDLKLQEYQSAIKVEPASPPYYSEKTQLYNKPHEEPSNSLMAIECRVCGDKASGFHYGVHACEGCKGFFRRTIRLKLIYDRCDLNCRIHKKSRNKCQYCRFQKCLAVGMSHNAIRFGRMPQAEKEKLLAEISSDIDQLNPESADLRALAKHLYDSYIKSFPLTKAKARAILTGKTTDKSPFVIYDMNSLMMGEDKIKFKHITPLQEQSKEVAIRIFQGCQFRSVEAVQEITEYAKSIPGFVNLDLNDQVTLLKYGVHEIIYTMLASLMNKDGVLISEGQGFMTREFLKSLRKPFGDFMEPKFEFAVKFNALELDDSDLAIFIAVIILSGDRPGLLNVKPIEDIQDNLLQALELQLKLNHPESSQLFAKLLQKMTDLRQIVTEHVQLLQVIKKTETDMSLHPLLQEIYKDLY
Method: The results are expressed as a percent of control specific binding ((measured specific binding/control specific binding)×100) obtained in the presence of the test compounds. The IC50 values (concentration causing a half-maximal inhibition of control specific binding) and Hill coefficients (nH) were determined by non-linear regression analysis of the competition curves generated with mean replicate values using Hill equation curve fitting (Y=D+[(A D)/(1+(C/C50)nH)], where Y=specific binding, D=minimum specific binding, A=maximum specific binding, C=compound concentration, C50=IC50, and nH=slope factor). This analysis was performed using a software developed at Cerep (Hill software) and validated by comparison with data generated by the commercial software SigmaPlot® 4.0 for Windows® (© 1997 by SPSS Inc.). The inhibition constants (Ki) were calculated using the Cheng Prusoff equation (Ki=IC50/(1+(L/KD)), where L=concentration of radioligand in the assay, and KD=affinity of the radioligand for the receptor).

[2] = Blood cell analysis at end of thrombosis experiment; assay type: in vivo, mouse
Method: (§1) The flow in each image is expressed as a percentage of that at the contralateral side, and data are averaged for all 120 images to determine total flow. The same analysis is performed for 10 min intervals (which gives essentially the same information as the area under the curve). […] Flow before treatment is recorded as 100%, and that in occluded arteries as 0%. At the end of the experiment, blood is collected on 0.01M citrate by heart puncture for determination of blood cell counts. Plasma is prepared by centrifugation and stored at −20° C. for determination of drug levels.
Table VI summarizes the results of blood cell analysis performed on a sample taken at the end of the observation period. (Z)-6-((2S,4S,5R)-2-(2-chlorophenyl)-4-(2-hydroxyphenyl)-1,3-dioxan-5-yl)hex-4-enoic is referred to in Table VI as EV.

[3] = system: mice (FeCl3 induced femoral artery thrombosis); assay: FeCl3 arterial thrombosis mouse model (occlusion time, blood flow); assay type: in vivo
Method: The solutions were diluted 3.3-fold in saline and 100 μl/25 g was injected.
During the experiments, a soluble potassium salt of the drug was provided, diluted in saline. Of this formulation, 100 μl/25 g was injected i.v. in the tail vein (dose of 100 mg/kg).
Aspirin is given the same way at a dose of 200 mg/kg. Clopidogrel is administered by oral gavage at a dose of 20 mg/kg at 6-7 hours prior to the experiment. The solutions were coded (except for clopidogrel) and the operator was blinded to the code. The animals assigned to each group were matched for body weight. All mice used were 8-10 weeks old males and were in a 100% Swiss genetic background.
as §1
Statistical analysis for differences between two groups is performed by non-parametric Student t-test. Occlusion times >30 min were considered equal to 30 min for statistical analysis. It should be noted that this approach may result in a statistical bias, the more so because the number of experiments is not the same in the different groups. Significance is set at p<0.05.

KKA^y mice = assay: Glucose lowering effect in KKAy mouse model; assay type: in vivo
Method: (§2) 52 male KKA^y mice were obtained commercially (e.g., from Clea Japan) at an age of 6 weeks and put on a high fat diet upon arrival. Individual mice were housed in IVC Type II cages during both the acclimatization and the experimental phase. Both food (high fat diet) and water were supplied ad libitum.
(§3) Mice were randomized into treatment groups according to their 4-h fasting blood glucose.
(§4) 4 hours after the last administration, non-fasting conditions.
(§5) Blood was collected into heparin containing glass capillaries which were subsequently centrifuged in a “Haematokrit 24” centrifuge (Hettich) at 15′200×g for 10 min at room temperature to obtain the hematocrit value.
(§6) The following serum parameters were determined on a COBAS INTEGRA 800 auto analyzer (Roche Diagnostics, Switzerland) using the reagents and protocols provided by the supplier.
(§7) All measurements were made on Day 14 of administration, except for the food intake and body weight measurements that were made on Day 12.

[4] = Glucose lowering effect in KKAy mouse model; assay type: in vivo; conditions: male, mouse, serum; KKA^y mice, 53 mg/kg BID oral gavage 14 days, 4 hours after the last administration, average ± S.E.M.; read-out: Serum level of the compound
Method: as §2, §3, §4, §5, §6, §7

mPPARalphaLBD = biological target: T2, mPPARalphaLBD (Mus musculus, UniProt P23204); assay: PPARalpha transactivation assay; assay type: cell-based
T2 construct: expressed in transfected cells
T2 sequence (P23204 239-466 limits assumed): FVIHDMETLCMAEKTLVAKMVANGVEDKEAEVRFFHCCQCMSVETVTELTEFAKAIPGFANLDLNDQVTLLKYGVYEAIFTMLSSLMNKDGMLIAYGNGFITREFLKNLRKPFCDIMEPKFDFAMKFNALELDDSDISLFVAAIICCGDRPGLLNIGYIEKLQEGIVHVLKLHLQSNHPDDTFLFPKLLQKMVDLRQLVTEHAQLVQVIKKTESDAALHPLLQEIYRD
Method: This example describes a transactivation assay for determining PPARalpha modulating activity.
DPD and other ligands are tested for their ability to transactivate PPARalpha essentially as described in Example 22.

[5] = 30 mg/kg vehicle i.v., n = 4, mean ± SEM
[6] = 100 mg/kg vehicle i.v., n = 9, mean ± SEM
[7] = 53 mg/kg BID oral gavage 14 days, Day 14, average ± S.E.M.

O=C(O)CC/C=C\C[C@H]1COC(c2ccccc2Cl)O[C@H]1c1ccccc1O (single isomer, unassigned) [Compound A]
inhibition at 100 µM [1]: 15% | PPARgamma binding @ 30 μM (PPARgamma (h); @ 30 μM): no binding

O=C(O)CC/C=C\C[C@@H]1CO[C@H](c2ccccc2Cl)O[C@@H]1c1ccccc1O (single isomer, unassigned) [Compound B]
Hematocrit [2, 5]: 62 ± 7.3% | Hemoglobin [2, 5]: 15 ± 0.28 g/dL | Lymphocytes [2, 5]: 42 ± 4.7% | Neutrophils [2, 5]: 56 ± 5.3% | Platelets [2, 5]: 1020 ± 89 ×10^3/μl | Red blood cells [2, 5]: 9.1 ± 0.26 ×10^6/μl | White blood cells [2, 5]: 0.95 ± 0.17 ×10^3/μl | Hematocrit [2, 6]: 70 ± 3.5% | Hemoglobin [2, 6]: 15 ± 0.30 g/dL | Lymphocytes [2, 6]: 58 ± 11% | Neutrophils [2, 6]: 34 ± 12% | Platelets [2, 6]: 895 ± 46 ×10^3/μl | Red blood cells [2, 6]: 9.2 ± 0.17 ×10^6/μl | White blood cells [2, 6]: 1.5 ± 0.46 ×10^3/μl | occlusion time ([3]; 30 mg/kg in vehicle (DMSO/PEG 400) i.v.): slightly prolongs the occlusion time as compared to aspirin (p=0.024), but has no effect as compared to vehicle | total blood flow ([3]; 30 mg/kg in vehicle i.v.): no effect | blood flow, time window 0-10 min ([3]; 100 mg/kg in vehicle i.v.): significantly higher flow as compared to aspirin (p=0.0002) but not as compared to vehicle only (p=0.11) | total blood flow ([3]; 100 mg/kg in vehicle i.v.): improved total blood flow as compared to aspirin (p=0.055), but not as compared to vehicle (p=0.45) | ALP (KKA^y mice; [7]): 21.5 ± 1.6 dU/L | ALT (KKA^y mice; [7]): 5.1 ± 0.6 dU/L | AST (KKA^y mice; [7]): 7.7 ± 1.0 dU/L | Hematocrit (KKA^y mice; [7]): 40.1 ± 1.6% | Serum Glucose (KKA^y mice; [7]): decreased | FFA (KKA^y mice; 53 mg/kg BID oral gavage 14 days, Day 14, average ± S.E.M., listed as (Z)-6-(2S,4S,5R)-2-(2-chlorophenyl)-4-(2-hydroxyphenyl)-1,3-dioxan-5-yl(hex-4-e, 53 mg/kg)): slightly decreased | Food Intake (KKA^y mice; 53 mg/kg BID oral gavage, Day 12, average ± S.E.M.): 5.0 ± 0.6 g/day | concentration at 4 h [4]: 161 ± 60 ng/mL

CC(C)(Sc1ccc(CCN(CCCCC2CCCCC2)C(=O)NC2CCCCC2)cc1)C(=O)O [GW7647, reference compound]
increase in PPARalpha transactivation (mPPARalphaLBD): over 2 fold

COc1ccc(C(=O)NCc2cccnc2)cc1C(=O)NCc1cccnc1 [Picotamide, reference compound]
PPARgamma binding @ 10 μM (PPARgamma (h); @ 10 μM): no binding

CN(CCOc1ccc(CC2SC(=O)NC2=O)cc1)c1ccccn1 (stereo not shown) [Rosiglitazone, rosiglitazone, reference compound]
Heart weight (KKA^y mice; 5 mg/kg BID oral gavage 14 days, Day 14, average ± S.E.M., 5 mg/kg): increased
